Experimental data reported in ChEMBL document CHEMBL6134843, “HDAC11 Inhibition as a Potential Therapeutic Strategy for AML: Target Identification, Lead Discovery, Antitumor Potency, and Mechanism Investigation” (J Med Chem, 2025).
Calls of active or inactive are those of the source. The rule behind the calls is not given here.

What was measured:
[1] = tested on: Acute myeloid leukemic cell; experiment: Induction of ferroptosis in human Acute myeloid leukemic cells assessed as upregulation of FTH1 mRNA level by RT-qPCR analysis; format: functional, cell-based
[2] = MRT (0 to infinity) in ICR(CD-1) mouse at 5 mg/kg, iv treated up to 24 hrs by LC-MS/MS analysis; format: ADME, organism-based; conditions: in vivo
[3] = tested on: Acute myeloid leukemic cell; experiment: Induction of ferroptosis in human Acute myeloid leukemic cells assessed as upregulation of FTH1 protein level at 2.5 to 10 uM by Western blot analysis; format: functional, cell-based; conditions: dose 2.5-10 µM
Histone deacetylase 4 = Histone deacetylase 4 (Homo sapiens, UniProt P56524); experiment: Inhibition of N-terminal GST-tagged C-terminal His-tagged human HDAC4 (627 to 1084 end residues) expressed in baculovirus expression system in Sf9 cells using Boc-Lys-(trifluoroacetyl)-AMC as substrate preincubated with enzyme for 1 hr followed by substrate addition and measured after 30 mins by fluorescence analysis
Chain of Histone deacetylase 4 (P56524 whole entry): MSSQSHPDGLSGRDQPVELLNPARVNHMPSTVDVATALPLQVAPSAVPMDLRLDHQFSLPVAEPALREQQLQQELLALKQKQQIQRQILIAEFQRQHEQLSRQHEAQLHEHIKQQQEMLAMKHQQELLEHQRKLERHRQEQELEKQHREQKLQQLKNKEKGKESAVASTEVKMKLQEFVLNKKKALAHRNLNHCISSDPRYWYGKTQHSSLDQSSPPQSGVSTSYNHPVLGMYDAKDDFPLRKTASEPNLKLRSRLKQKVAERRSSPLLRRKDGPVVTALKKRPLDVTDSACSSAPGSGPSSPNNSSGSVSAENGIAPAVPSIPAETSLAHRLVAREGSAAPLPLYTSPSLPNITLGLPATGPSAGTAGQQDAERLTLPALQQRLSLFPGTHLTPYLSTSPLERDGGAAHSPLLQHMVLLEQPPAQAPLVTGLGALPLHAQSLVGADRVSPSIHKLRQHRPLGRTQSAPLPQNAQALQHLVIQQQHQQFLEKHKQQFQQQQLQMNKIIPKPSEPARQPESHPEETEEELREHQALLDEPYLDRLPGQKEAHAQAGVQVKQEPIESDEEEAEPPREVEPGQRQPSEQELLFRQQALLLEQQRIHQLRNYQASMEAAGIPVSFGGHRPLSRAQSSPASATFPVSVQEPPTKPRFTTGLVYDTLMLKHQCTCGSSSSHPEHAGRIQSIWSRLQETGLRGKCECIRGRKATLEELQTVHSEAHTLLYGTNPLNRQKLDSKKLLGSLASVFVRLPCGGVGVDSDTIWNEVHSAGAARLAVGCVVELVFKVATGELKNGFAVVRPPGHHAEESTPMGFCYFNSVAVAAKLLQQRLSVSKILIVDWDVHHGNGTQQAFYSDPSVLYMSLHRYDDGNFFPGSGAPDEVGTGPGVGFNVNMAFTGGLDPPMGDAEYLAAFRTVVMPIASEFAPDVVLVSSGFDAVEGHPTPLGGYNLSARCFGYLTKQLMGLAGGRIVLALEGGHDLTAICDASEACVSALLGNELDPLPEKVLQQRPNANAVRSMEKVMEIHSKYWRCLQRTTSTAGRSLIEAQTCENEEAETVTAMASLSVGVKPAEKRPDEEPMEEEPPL

MLL-AF9 [4] = experiment: Antitumor activity against mouse MLL-AF9 cells allografted in female C57BL/6 mouse model assessed as reduction in splenomegaly at 50 mg/kg, ip administered once daily for 23 days in presence of cytarabine; format: functional, organism-based; conditions: time 23.0 day
[5] = Toxicity in female C57BL/6 mouse assessed as drug tolerance at 50 mg/kg, ip administered once daily; format: organism-based; conditions: in vivo
U-937 [6] = experiment: Induction of ferroptosis in human U-937 cells assessed as increase in malondialdehyde level at 5 uM incubated for 48 hrs in presence of ferrostatin-1; format: functional, cell-based
[7] = Toxicity in female C57BL/6 mouse model assessed as change in body weight at 50 mg/kg, ip administered once daily; format: organism-based; conditions: in vivo
U-937 [8] = experiment: Effect on TP53 gene expression in human U-937 cells at 10 uM incubated for 48 hrs by RT-qPCR; format: functional, cell-based
[9] = Cytotoxicity against HEK293T cells assessed as cell viability incubated for 2 days by CCK-8 assay; format: toxicity, cell-based, HEK-293T; conditions: human
[10] = tested on: Acute myeloid leukemic cell; experiment: Induction of ferroptosis in human Acute myeloid leukemic cells assessed as downregulation of GPX4 level by Western blot analysis; format: functional, cell-based
[11] = MRT (0 to infinity) in ICR(CD-1) mouse at 50 mg/kg, ip treated up to 24 hrs by LC-MS/MS analysis; format: ADME, organism-based; conditions: in vivo
U-937 [12] = experiment: Antitumor activity against human U-937 cells assessed as cell growth inhibition incubated for 2 days by CCK-8 assay; conditions: U-937, 48 h
U-937 [13] = experiment: Induction of ferroptosis in human U-937 cells assessed as increase in ROS generation at 5 uM incubated for 48 hrs in presence of ferrostatin-1 by DCFH-DA staining based flow cytometry analysis; format: functional, cell-based
OCI-AML2 [14] = experiment: Induction of ferroptosis in human OCI-AML2 cells assessed as increase in ferrous ion accumulation at 100 uM incubated for 48 hrs by RhoNox-1 staining based flow cytometry analysis; format: functional, cell-based
[15] = AUC (0 to infinity) in ICR(CD-1) mouse at 5 mg/kg, iv treated up to 24 hrs by LC-MS/MS analysis; format: ADME, organism-based; conditions: in vivo
MLL-AF9 [16] = experiment: Antitumor activity against mouse MLL-AF9 cells allografted in female C57BL/6 mouse model assessed as reduction in splenomegaly at 50 mg/kg, ip administered once daily for 23 days; format: functional, organism-based; conditions: time 23.0 day
MV4-11 = experiment: Antiproliferative activity against human MV4-11 cells assessed as cell growth inhibition incubated for 2 days by CCK-8 assay; conditions: MV4-11, 48 h
[17] = Antitumor activity against mouse MLL-AF9 cells allografted in female C57BL/6 mouse model assessed as GFP positive leukemic cells in peripheral blood at 50 mg/kg, ip administered once daily for 26 days by FITC staining based analysis (reference value: 30.6 %); format: functional; conditions: time 26 day
[18] = Tmax in ICR(CD-1) mouse at 50 mg/kg, ip treated up to 24 hrs by LC-MS/MS analysis; format: ADME, organism-based; conditions: in vivo
[19] = tested on: Acute myeloid leukemic cell; experiment: Induction of ferroptosis in human Acute myeloid leukemic cells assessed as upregulation of GPX4 mRNA level by RT-qPCR analysis; format: functional, cell-based
U-937 [20] = experiment: Upregulation of p62 […] level in human U-937 cells at 2.5 to 10 uM incubated for 48 hrs by Western blot analysis; format: functional, cell-based; conditions: dose 2.5-10 µM
OCI-AML2 [21] = experiment: Induction of ferroptosis in human OCI-AML2 cells assessed as increase in ferrous ion accumulation at 5 uM incubated for 48 hrs by RhoNox-1 staining based flow cytometry analysis; format: functional, cell-based
[22] = tested on: Acute myeloid leukemic cell; experiment: Induction of ferroptosis in human Acute myeloid leukemic cells assessed as upregulation of FTL mRNA level by RT-qPCR analysis; format: functional, cell-based
U-937 [23] = experiment: Antiproliferative activity against human U-937 cells assessed as suppression of cell growth at 5 uM incubated for 48 hrs in presence of K67 by trypan blue staining based analysis; format: functional
MLL-AF9 [24] = experiment: Synergistic antitumor activity against mouse MLL-AF9 at 1 to 4 uM in presence of cytarabine by CCK-8 assay; format: functional, cell-based; conditions: dose 1-4 µM
OCI-AML2 [25] = experiment: Induction of cell differentiation in human OCI-AML2 cells assessed as increase in CD14 expression at 5 uM incubated for 48 hrs by flow cytometry analysis; format: functional, cell-based
U-937 [26] = experiment: Effect on CCNB1 gene expression in human U-937 cells at 10 uM incubated for 48 hrs by RT-qPCR; format: functional, cell-based
OCI-AML2 [27] = experiment: Antiproliferative activity against human OCI-AML2 cells assessed as cell growth inhibition incubated for 2 days by CCK-8 assay; conditions: OCI-AML2, 48 h
[28] = Toxicity in female C57BL/6 mouse assessed as drug tolerance at 50 mg/kg, ip administered once daily in presence of cytarabine; format: organism-based; conditions: in vivo
OCI-AML2 [29] = experiment: Induction of ferroptosis in human OCI-AML2 cells assessed as increase in lipid peroxidation accumulation at 100 uM incubated for 48 hrs by C11-BODIPY 581/591 staining based flow cytometry analysis; format: functional, cell-based
MLL-AF9 [30] = experiment: Antitumor activity against mouse MLL-AF9 cells allografted in female C57BL/6 mouse model assessed as reduction in hepatomegaly at 50 mg/kg, ip administered once daily for 23 days in presence of cytarabine; format: functional, organism-based; conditions: time 23.0 day
OCI-AML2 [31] = experiment: Induction of ferroptosis in human OCI-AML2 cells assessed as increase in lipid peroxidation level incubated for 48 hrs by C11-BODIPY 581/591 staining based flow cytometry analysis; format: functional, cell-based; conditions: dose 2.5-10 µM
MOLM-13 = experiment: Antiproliferative activity against human MOLM-13 cells assessed as cell growth inhibition incubated for 2 days by CCK-8 assay; conditions: MOLM-13, 48 h
[32] = tested on: Acute myeloid leukemic cell; experiment: Induction of ferroptosis in human Acute myeloid leukemic cells assessed as upregulation of TF protein level at 2.5 to 10 uM by Western blot analysis; format: functional, cell-based; conditions: dose 2.5-10 µM
[33] = Cmax in ICR(CD-1) mouse at 50 mg/kg, ip treated up to 24 hrs by LC-MS/MS analysis; format: ADME, organism-based; conditions: in vivo
OCI-AML2 [34] = experiment: Induction of ferroptosis in human OCI-AML2 cells assessed as increase in ROS generation at 5 uM incubated for 48 hrs in presence of ferrostatin-1 by DCFH-DA staining based flow cytometry analysis; format: functional, cell-based
OCI-AML2 [35] = experiment: Cytotoxicity against human OCI-AML2 cells assessed as cell growth inhibition at 5 uM incubated for 24 to 48 hrs by cell counting assay; format: functional, cell-based; conditions: time 24-48 hrs

With `O=C(NO)c1cccc2[nH]c(C#Cc3cccc(C(F)(F)F)c3)cc12` the Activity [1] was “Active”, the MRT inf [2] was 1.27 h and the Activity [3] was “Active”. The IC50 (Histone deacetylase 4) was over 100 µM, the Activity (MLL-AF9 [4]) was “Active” and the Activity [5] was “Non-toxic”. For the same compound, the Activity (U-937 [6]) was “inactive”, the Activity [7] was “Non-toxic” and the Activity (U-937 [8]) was “Active”. The IC50 at 2 days [9] was 80 µM, the Activity [10] was “Active” and the MRT inf [11] was 6.03 h. The IC50 (U-937 [12]) was 9.66 µM, the Activity (U-937 [13]) was “inactive” and the Activity (OCI-AML2 [14]) was “Active”. The AUC(0-inf) [15] was 625 ng·h/mL, the Activity (MLL-AF9 [16]) was “Active” and the IC50 (MV4-11) was at most 10 µM. For the same compound, the Activity [17] was 11.2%, the Tmax [18] was 4.8 min and the Activity [19] was “Active”. For the same compound, the Activity (U-937 [20]) was “Active”, the Activity (OCI-AML2 [21]) was “Active” and the Activity [22] was “Active”. The Activity (U-937 [23]) was “inactive”, the Activity (MLL-AF9 [24]) was “Active” and the Activity (OCI-AML2 [25]) was “Active”. For the same compound, the Activity (U-937 [26]) was “Active”, the IC50 (OCI-AML2 [27]) was 8.07 µM and the Activity [28] was “Non-toxic”. For the same compound, the Activity (OCI-AML2 [29]) was “Active”, the Activity (MLL-AF9 [30]) was “Active” and the Activity (OCI-AML2 [31]) was “Dose-dependent-effect”. For the same compound, the IC50 (MOLM-13) was at most 10 µM, the Activity [32] was “Active” and the Cmax [33] was 2920 ng/mL. For the same compound, the Activity (OCI-AML2 [34]) was “inactive” and the Activity (OCI-AML2 [35]) was “Active”.
